From paper PMC12357248, “Selectively targeting BCL6 using a small-molecule inhibitor is a potential therapeutic strategy for glioblastoma” (Genes & Diseases, 2025) come the findings set out here.

Assay [1] deals with SF268. As to the kind of experiment: MTS cell viability assay. The class given is cell-based. The conditions noted are these: Homo sapiens, SF-268. As to the method:
(§1) Cell viability was tested by MTS assay (Promega, USA). 8000 cells were seeded in a 96-well plate and then treated with compounds for 72 h, followed by the addition of 20 μL of MTS and incubation at 37 °C for 2–3 h. Absorbance at 490 nm is measured with the SpectraMax 190 plate reader, and the IC50 value is calculated by GraphPad Prism. In the drug combination assay, combination index (CI) values were calculated using CalcuSyn software. A CI value greater than 1 has a drug antagonistic effect, and a value less than 1 has a synergistic effect.
For orientation: Tetrazolium assays rely on reduction of a dye to a coloured formazan, in cell work by metabolically active cells.

Assay [2] concerns U87-MG. As to the kind of experiment: MTS cell viability assay. The class given is cell-based. The conditions noted are these: Homo sapiens, U-87 MG. On the procedure: as §1
Assay [3] relates to U251. As to the kind of experiment: MTS cell viability assay. The conditions noted are these: Homo sapiens, U-251. The class given is cell-based. As to the method: as §1
Assay [4] concerns U87-MG-Luc xenograft. As to the kind of experiment: Intracranial (orthotopic) U87-MG-Luc GBM xenograft. The conditions noted are these: TMZ 5 mg/kg, YK01 12.5 mg/kg, intraperitoneally. The class given is in vivo, BALB/c nude mice. The source says: An orthotopic U87-MG GBM-bearing mouse model of BALB/c nude mice was created. Five microlitres of U87-MG-Luc cells (1 × 10^5 cells) were implanted into the left striatum of anaesthetized animals. The burr hole was then filled with bone wax, and the scalp was closed with tissue glue. To assess the growth of the glioma, bioluminescence imaging (in vivo imaging system, Lumina III) was used to determine its size. […]

Assay [5] relates to BCL6. As to the kind of experiment: Western blotting of BCL6 after TMZ treatment. In kind it is cell-based. The conditions noted are these: U251, SF268, U87-MG, 24 h. On the procedure: Cell lines were treated with drugs, and tumor tissues were collected in a Ripa lysis buffer. Western blotting was performed using antibodies against BCL6 (14895S, Cell Signaling Technology), PARP (poly(ADP-Ribose) polymerase; 9532S, Cell Signaling Technology), γH2AX (phosphorylated form of H2A.X variant histone; 9718S, Cell Signaling Technology), phospho-ERK (4370S, Cell Signaling Technology), ERK (extracellular signal-regulated kinase; 4695T, Cell Signaling Technology), phospho-AKT (4060S, Cell Signaling Technology), AKT (9272S, Cell Signaling Technology), GAPDH (AB0036, ABWAYS), BCL2 (T40056F, ABWAYS), c-MYC (CY5150, ABWAYS).
On the technique in general: A western blot detects proteins with antibodies after separation by electrophoresis.

For assay [6], the target named is T1, BCL6^BTB (Homo sapiens, UniProt P41182).
T1 construct: expressed in transfected cells
As to the kind of experiment: Luciferase reporter assay, BCL6-BTB-mediated transcriptional repression. The class given is cell-based. The conditions noted are these: even at 20 μM. On the technique in general: Reporter assays use an easily measured gene product as a stand-in for the process of interest.

The target of assay [7] is T2, eGFP-BCL6 (FL) (Homo sapiens, UniProt P41182).
T2 construct: a gene encoding the full-length BCL6 protein fused to eGFP; expressed in transfected cells; host or cells: HEK293T
As to the kind of experiment: BCL6-eGFP-mCherry stability reporter in HEK293T cells. In kind it is cell-based. The conditions noted are these: 1 μM.

In assay [8] the target is BCL6^BTB/SMRT interaction (Homo sapiens, UniProt P41182). The assay can be described thus: HTRF assay, BCL6-BTB/SMRT interaction. The class given is binding.

What is called IC50 is the concentration that gives 50% inhibition. Turning to `O=C(O)CCN1C(=O)/C(=C2/C(=O)Nc3ccc(Cl)cc32)SC1=S` [FX1], the IC50 was found to be 43.9 ± 1.23 µM in assay [1], 32 ± 1.12 µM in assay [2] and 37.4 ± 1.41 µM in assay [3].
Turning to `Cn1nnc2c(C(N)=O)ncn2c1=O` [TMZ, temozolomide], the “U87-MG-luci xenograft growth (bioluminescence)” value in assay [4] is “improved”. Also, the BCL6 expression result in assay [5] is “up-regulated”.
On to `CNC(=O)COc1cc2cc(Nc3nc(N4C[C@H](C)C[C@H](C)C4)ncc3Cl)ccc2n(C)c1=O` [BI3802], for which the “effect on BCL6^BTB” value in assay [6] is on record as “little effect”. In assay [7], the “effect on eGFP-BCL6 (FL) reporter” value was “degradation”. In assay [8], the IC50 is 0.0027 µM.
